This is an account of results in patent US4100299A, “Pharmaceutically active 2-omega-aminoalkoxydiphenylmethylmethanes” (Mitsubishi Chemical Industries Limited, priority 1977, dated 1978).

The nature of one data set: in vivo. The settings on record: mouse, ip.
The subject of data set [1] is reserpine induced hypothermia. Kind of data set: Antireserpine activity: antagonism of reserpine induced hypothermia (antidepressant activity). The settings on record: for Antireserpine Activity in Mice, Relative Potency: relative to Amitriptyline = 1, i.p., reserpine 5 mg/kg i.p. It is filed as in vivo.
For data set [2], the system named is spontaneous motor activity. Kind of data set: Spontaneous motor activity depression (ANIMEX apparatus; CNS depressant activity). The data set is classed as in vivo. The conditions noted are these: mice.
Protocol: (§1) The compounds were administered intraperitoneally and the activities of the compounds were compared with those of Amitriptyline.
The test system of data set [3] is electroshock induced tonic extensor. Kind of data set: Anticonvulsant activity: antagonism of electroshock induced tonic extensor. The settings on record: Mus musculus, ip, mice, dose which prevents 50% of each response. The data set is classed as in vivo.
Protocol: as §1
A further data set has as its system mice. The settings on record: i.p.
The test system of a further data set is traction test. Kind of data set: Muscle relaxant action: traction test (CNS depressant activity, neurological deficit). The data set is classed as in vivo. The settings on record: Mus musculus, ip, mice.
For another data set, the system named is tremorine induced tremor. Briefly: Antitremorine effect (central anticholinergic effect). The data set is classed as in vivo. The conditions noted are these: mice.

Structures can show the parent of a compound that is named as a salt.

Protocol for traction test: as §1
Protocol for tremorine induced tremor: as §1

The term LD50 denotes the dose expected to kill half of the subjects tested. A low value points to greater toxicity. For the compound `CC(c1ccccc1)c1ccccc1OCCCN(C)C` (centres unmarked) [2-(3-dimethylaminopropoxy)diphenylmethylmethane], the median lethal dose (LD50) in the data set “in vivo” came to 155 mg/kg. For the same compound, the “Antireserpine Activity in Mice, Relative Potency” value in data set [1] was 0.34.

Compound `CC(c1ccccc1)c1ccccc1OCCCCN(C)C` (centres unmarked) [2-(4-dimethylaminobutoxy)diphenylmethylmethane hydrochloride] registered an LD50 in the data set “in vivo” of 110 mg/kg. Moreover, the “Antireserpine Activity in Mice, Relative Potency” value in data set [1] is 0.36.

A word on the ED50: it is the dose that gives a 50% effect, or the effect in half of the subjects. Take `CNCCCCOc1ccccc1C(C)c1ccccc1` (centres unmarked) [2-(4-methylaminobutoxy)diphenylmethylmethane hydrochloride]: the ED50 in data set [2] (Mus musculus, ip, ANIMEX apparatus) is 32 mg/kg; in data set [3], 25 mg/kg; in the data set on traction test it was > 60 mg/kg; in the data set on tremorine induced tremor (Mus musculus, ip, tremorine induced tremor), 20 mg/kg. In addition, the “CNS depressant action (in words)” value in data set [2] (i.p., traction test and spontaneous motor activity) is given as “weak CNS depressant”. Also, the LD50 in “in vivo” was determined as 140 mg/kg. In addition, the “antireserpine activity (in words)” value in data set [1] (mice, i.p., compared with Amitriptyline) is on record as “antireserpine activity comparable to that of Amitriptyline”. Moreover, the “Antireserpine Activity in Mice, Relative Potency” value in data set [1] is listed as 0.66. Besides, the “toxicity (in words)” value with mice is on record as “low toxicity”. The “anticholinergic action (in words)” value with tremorine induced tremor (i.p.) was “weak CNS depressant and anticholinergic action”.
